Where two headings read alike, the source gives them in different places.

Series [1] has as its system EBOV mucin-domain-deleted glycoprotein pseudotyped VSV. The series is described as follows: microbe, parasite or virus in culture. As to conditions: Zaire ebolavirus, Vero, read-out: EC50 EBOV. It counts as cell-based, Zaire ebolavirus.
Series [2] has as its system BDBV mucin-domain-deleted glycoprotein pseudotyped VSV. The series is described as follows: microbe, parasite or virus in culture. It is filed as cell-based, Bundibugyo ebolavirus. As to conditions: Vesicular stomatitis virus, Vero, read-out: EC50 BDBV.
The next series concerns Vero cells. As to conditions: African green monkey.
A short description of the next series: in vitro. Conditions: African green monkey, CC50.

What is called EC50 is the concentration that produces a half-maximal response. Turning to `CC(C)CN1CCOC(CNC(=O)C23CC4CC(C2)CC(c2ccccc2)(C4)C3)C1` (stereo not shown) [Example B2, N-{[4-(2-methylpropyl)morpholin-2-yl]methyl}-3-phenyladamantane-1-carboxamide], in series [1] (24 h), the EC50 amounted to 570 nM. Further, the EC50 in series [2] (24 h) was determined as 930 nM. In addition, in the series on Vero cells, the “% cell viability at 3 μM” value was determined as 100% and the “% cell viability at 10 μM” value was 97%.

With `c1ccc(C23CC4CC(CC(CNc5ccc(CN6CCCCC6)cn5)(C4)C2)C3)cc1` [Example C15, N-[(3-phenyladamantan-1-yl)methyl]-5-(piperidin-1-ylmethyl)pyridin-2-amine], the EC50 in series [1] is over 1000 nM; in series [2], 980 nM. Besides, the CC50 in “in vitro” came out at 3900 nM.

In the case of `NCc1ccc(NCC23CC4CC(C2)CC(c2ccccc2)(C4)C3)nc1` [Example C16, 5-(aminomethyl)-N-[(3-phenyladamantan-1-yl)methyl]pyridin-2-amine], the results for the EC50 in series [1] and in series [2] were 980 nM and 750 nM, respectively. Further, the CC50 in “in vitro” was found to be 8000 nM.

`CC1CCN(C[C@H](O)COc2ccc(C34CC5CC(CC(c6ccccc6)(C5)C3)C4)cc2)CC1` [Example C18, (2S)-1-(4-methylpiperidin-1-yl)-3-[4-(3-phenyladamantan-1-yl)phenoxy]propan-2-ol]: the EC50 in series [1] was 80 nM; in series [2] it was 260 nM. For the same molecule, the CC50 in “in vitro” was determined as 2700 nM.

Turning to `CCC12CC3CC(C1)CC(c1ccc(OC[C@@H](O)CN4CCC(C)CC4)cc1)(C3)C2` [Example C19, (S)-1-(4-(−3-ethyladamantan-1-yl)phenoxy)-3-(4-methylpiperidin-1-yl)propan-2-ol], the EC50 in series [1] stood at 110 nM; in series [2], 200 nM. The CC50 in the series “in vitro” was over 100000 nM.

As to `Cc1ccc(C23CC4CC(CC(CN5CCCCC5)(C4)C2)C3)cc1` [Example D1], the EC50 in series [1] (24 h) was found to be 1300 nM; in series [2] (24 h), 610 nM. This molecule showed a CC50 in “in vitro” of over 10000 nM.

For the molecule `COc1ccc(CNCCC23CC4CC(CC(C4)C2)C3)cc1` [Example D4, [2-(adamantan-1-yl)ethyl][(4-methoxyphenyl)methyl]amine], the values for the EC50 in series [1] (24 h) and in series [2] (24 h) were 2190 nM and 2720 nM, respectively. The molecule also registered a CC50 in “in vitro” of over 10000 nM.

Turning to `CCOCCN1CCN(CC23CC4CC(CC(C4)C2)C3)CC1` [Example D5, 1-(adamantan-1-ylmethyl)-4-(2-ethoxyethyl)piperazine], the figures for the EC50 in series [1] (24 h) and in series [2] (24 h) were 4600 nM and 1800 nM, respectively. The molecule also had a CC50 in the series “in vitro” of over 10000 nM.

As for `CC1CCN(CC(O)COCCC23CC4CC(CC(C4)C2)C3)CC1` (stereo not shown) [Example D10, 1-[2-(adamantan-1-yl)ethoxy]-3-(4-methylpiperidin-1-yl) propan-2-ol], the EC50 in series [1] (24 h) was 320 nM; in series [2] (24 h) it was 140 nM. In the series “in vitro”, this molecule came in with a CC50 of 15500 nM.

With `CC1CCCCN1CC(O)COCCC12CC3CC(CC(C3)C1)C2` (stereo not shown) [Example D11, 1-[2-(adamantan-1-yl)ethoxy]-3-(2-methylpiperidin-1-yl)propan-2-ol], the EC50 in series [1] (24 h) turned out to be 440 nM; in series [2] (24 h), 190 nM. The same molecule yielded a CC50 in “in vitro” of 7500 nM.

On to `CCN(CC(O)COCCC12CC3CC(CC(C3)C1)C2)C1CCCCC1` (stereo not shown) [Example D12, N-{3-[2-(adamantan-1-yl)ethoxy]-2-hydroxypropyl}-N-ethylcyclo hexanamine], for which the half-maximal effective concentration (EC50) came to 610 nM in series [1] (24 h) and 490 nM in series [2] (24 h). The same molecule returned a CC50 in “in vitro” of over 3000 nM.

Turning to `CC(C)(C)NCC(O)COCCC12CC3CC(CC(C3)C1)C2` (stereo not shown) [Example D13, {3-[2-(adamantan-1-yl)ethoxy]-2-hydroxypropyl}(tert-butyl)amine], the EC50 in series [1] (24 h) turned out to be 630 nM; in series [2] (24 h), 670 nM. The molecule further yielded a CC50 in “in vitro” of over 10000 nM.

As for `OC(COCCC12CC3CC(CC(C3)C1)C2)CN1CCOCC1` (stereo not shown) [Example D16, 1-[2-(adamantan-1-yl)ethoxy]-3-(morpholin-4-yl)propan-2-ol], the EC50 in series [1] (24 h) is 3800 nM; in series [2] (24 h), 3200 nM. Besides, the CC50 in “in vitro” is over 10000 nM.

Take `CC1CCN(C[C@H](O)COc2ccc(C34CC5CC(CC(C5)C3)C4)cc2)CC1` [Example D22, (2S)-1[4-(adamantan-1-yl)phenoxy]-3-(4-methylpiperidin-1-yl)propan-2-ol]: the EC50 in series [1] (24 h) was determined as 52 nM; in series [2] (24 h), 85 nM. The CC50 in the series “in vitro” is 8500 nM.

For the molecule `CC1CCN(C[C@@H](O)COc2ccc(C34CC5CC(CC(C5)C3)C4)cc2)CC1` [Example D23, (2R)-1-[4-(adamantan-1-yl)phenoxy]-3-(4-methylpiperidin-1-yl)propan-2-ol], the values for the EC50 in series [1] (24 h) and in series [2] (24 h) were 60 nM and 77 nM, respectively. In “in vitro”, the CC50 was found to be 3900 nM.

Turning to `CCN1CCN(CC(O)COc2ccc(C34CC5CC(CC(C5)C3)C4)cc2)CC1` (stereo not shown) [Example D25, 1-[4-(adamantan-1-yl)phenoxy]-3-(4-ethylpiperazin-1-yl)propan-2-ol], the values for the EC50 in series [1] (24 h) and in series [2] (24 h) were 90 nM and 240 nM, respectively. The molecule further yielded a CC50 in “in vitro” of 3100 nM.

Regarding `CN1CCN(C[C@H](O)COc2ccc(C34CC5CC(CC(C5)C3)C4)cc2)CC1` [Example D27], the half-maximal effective concentration (EC50) is 130 nM in series [1] (24 h) and 190 nM in series [2] (24 h). The molecule also came in with a CC50 in “in vitro” of 3500 nM.

Consider `CN1CCN(CC(O)COc2ccc(C34CC5CC(CC(C5)C3)C4)cc2)CC1` (stereo not shown) [Example D28, 1-[4-(adamantan-1-yl)phenoxy]-3-(4-methylpiperazin-1-yl)propan-2-ol], for which the figures for the EC50 in series [1] (24 h) and in series [2] (24 h) were 150 nM and 210 nM, respectively. This molecule came in with a CC50 in the series “in vitro” of 4200 nM.

On to `NCCOc1ccc(C23CC4CC(CC(C4)C2)C3)cc1` [Example D34, 1-[4-(2-aminoethoxy)phenyl] adamantane], for which the values for the EC50 in series [1] (24 h) and in series [2] (24 h) were 430 nM and 1160 nM, respectively. The same molecule had a CC50 in the series “in vitro” of 3700 nM.

As for `Nc1ccc(C23CC4CC(CC(C4)C2)C3)cc1` [Example D36, 4-(adamantan-1-yl)aniline], the results for the EC50 in series [1] (24 h) and in series [2] (24 h) were 4200 nM and 6200 nM, respectively. In addition, the CC50 in the series “in vitro” was over 10000 nM.

For `CC12CC3CC(C)(C1)CC(c1ccc(OC[C@@H](O)CN4CCCCC4)cc1)(C3)C2` [Example D39, (2S)-1-[4-(3,5-dimethyladamantan-1-yl)phenoxy]-3-(piperidin-1-yl) propan-2-ol], the 50% effective concentration (EC50) in series [1] (24 h) is 120 nM; in series [2] (24 h) it was 250 nM. The same molecule showed a CC50 in “in vitro” of 3200 nM.

As to `CC1CCN(C[C@H](O)COc2ccc(C34CC5CC(C)(CC(C)(C5)C3)C4)cc2)CC1` [Example D40, (2S)-1-[4-(3,5-dimethyladamantan-1-yl)phenoxy]-3-(4-methylpiperidin-1-yl)propan-2-ol], the EC50 in series [1] (24 h) turned out to be 190 nM; in series [2] (24 h) it was 460 nM. This molecule yielded a CC50 in “in vitro” of 2500 nM.

With `O=C(NCCC12CC3CC(CC(C3)C1)C2)c1ccc(CN2CCOCC2)cc1` [Example D41, N-[2-(adamantan-1-yl)ethyl]-4-(morpholin-4-ylmethyl)benzamide], the EC50 in series [1] (24 h) was 2300 nM; in series [2] (24 h) it was 9700 nM. The molecule also displayed a CC50 in the series “in vitro” of over 3000 nM.

As to `CC(NC(=O)Cn1ccc(C(F)(F)F)n1)C12CC3CC(CC(C3)C1)C2` (stereo not shown) [Example D44, N[1-(adamantan-1-yl)ethyl]-2-[3-(trifluoromethyl)-1H-pyrazol-1-yl] acetamide], the EC50 in series [1] (24 h) was determined as 5800 nM; in series [2] (24 h) it was 2700 nM. This molecule also came in with a CC50 in the series “in vitro” of over 10000 nM.

Turning to `CC(NC(=O)NCC(C)(C)N1CCOCC1)C12CC3CC(CC(C3)C1)C2` (stereo not shown) [Example D45, 1-[1-(adamantan-1-yl)ethyl]-3-[2-methyl-2-(morpholin-4-yl)propyl]urea], the results for the EC50 in series [1] (24 h) and in series [2] (24 h) were 6500 nM and 4600 nM, respectively. For the same molecule, the CC50 in “in vitro” was over 10000 nM.

Turning to `CN(C)C1CCCN(C(=O)NCC23CC4CC(CC(C4)C2)C3)C1` (stereo not shown) [Example D46, N-(adamantan-1-ylmethyl)-3-(dimethylamino)piperidine-1-carboxamide], the figures for the half-maximal effective concentration (EC50) in series [1] (24 h) and in series [2] (24 h) were 6700 nM and 4300 nM, respectively. Further, in the series “in vitro”, the CC50 was over 10000 nM.

For `CC(NC(=O)Cn1nnc(-c2ccco2)n1)C12CC3CC(CC(C3)C1)C2` (stereo not shown) [Example D47, N-[1-(adamantan-1-yl)ethyl]-2-[5-(furan-2-yl)-2H-1,2,3,4-tetrazol-2-yl]acetamide], the values for the EC50 in series [1] (24 h) and in series [2] (24 h) were 9300 nM and 5400 nM, respectively. Also, the CC50 in “in vitro” was over 10000 nM.

Take `O=C(NC1CCNCC1)NC12CC3CC(C1)CC(c1ccccc1)(C3)C2` [Example E1, 3-(3-phenyladamantan-1-yl)-1-(piperidin-4-yl)urea]: the EC50 was over 1000 nM in series [1] and 770 nM in series [2]. The same molecule had a CC50 in the series “in vitro” of 18300 nM.

As for `N[C@H]1CC[C@H](NC(=O)NC23CC4CC(C2)CC(c2ccccc2)(C4)C3)CC1` [Example E2, 1-(4-aminocyclohexyl)-3-(3-phenyladamantan-1-yl)urea], the figures for the EC50 in series [1] and in series [2] were 870 nM and 610 nM, respectively. The molecule further gave a CC50 in “in vitro” of 12600 nM.

On to `O=C(NC12CC3CC(C1)CC(c1ccccc1)(C3)C2)C1CCNCC1` [Example E3, N-(3-phenyladamantan-1-yl)piperidine-4-carboxamide], for which the values for the EC50 in series [1] and in series [2] were over 1000 nM and 270 nM, respectively. The molecule also gave a CC50 in “in vitro” of 36300 nM.

As for `O=C(CC1CCNCC1)NC12CC3CC(C1)CC(c1ccccc1)(C3)C2` [Example E4, N-(3-phenyladamantan-1-yl)-2-(piperidin-4-yl)acetamide], the figures for the EC50 in series [1] and in series [2] were 1080 nM and 790 nM, respectively. Also, the CC50 in “in vitro” came to 23100 nM.

Consider `N[C@H]1CC[C@H](C(=O)NC23CC4CC(C2)CC(c2ccccc2)(C4)C3)CC1` [Example E5, trans-4-amino-N-(3-phenyladamantan-1-yl)cyclohexane-1-carboxamide], for which the EC50 in series [1] came out at 680 nM; in series [2], 230 nM. Besides, the CC50 in the series “in vitro” stood at 13300 nM.

As to `O=C(NCC12CC3CC(C1)CC(c1ccccc1)(C3)C2)C1CCNCC1` [Example E6, N-[(3-phenyladamantan-1-yl)methyl]piperidine-4-carboxamide], the EC50 in series [1] worked out at 710 nM; in series [2] it was 200 nM. The CC50 in the series “in vitro” is 11900 nM.

These data come from patent US12240857B2 (priority 2017, dated 2025).
